What was measured:
[1] = test system: de novo Vk*MYC mice; assay: Multiple myeloma mouse model, de novo Vk*MYC mice, M-spike levels; type: in vivo
Description: (§1) The trans-pyrodach-2 compound is tested on the multiple myeloma mouse model, in particular Vk*MYC mice, which has been reported to be a faithful preclinical model that predicts the clinical activity of drugs in untreated and relapsed MM (Chesi, M., et al., Cancer Cell, 2008, 23, 167-180; Chesi, M., et al., Blood, 2012, 120(2): 376-385). Additionally, the trans-pyrodach-2 compound was tested in mice engrafted with the more aggressive bortezomib resistant Vk12598, and in the multidrug resistant Vk12653 lines, both of which were generated from Vk*MYC mice.
De novo Vk*MYC mice were aged to one year or longer, and M-spike levels were monitored. After the concentrations of the predominant M-spike reached levels of between about 10 and 70 g/L (estimated by densitometry, comparing M-spike to albumin), mice were candidates for starting drug treatment. Mice brought onto the study were dosed either twice weekly (n=2) or thrice (n=1) weekly at a concentration of 100 or 67 mg/kg (R,R)-pyrodach-2, respectively, administered via IP injection after preparation in a phosphate buffer solution. M-spike levels were measured weekly, and post-treatment measurements were compared and normalized to the pre-treatment baseline measurement. Dosing was halted after two weeks of treatment.

[2] = test system: Vk12598-engrafted mice; assay: Mice engrafted with bortezomib resistant Vk12598 line, survival; type: in vivo; details: 62.5 mg/kg IP twice a week for two weeks; for survival: versus vehicle control (all died by 21 days)
Description: as §1
(§2) Additionally, mice were engrafted with the Vk12598 transplantable line and received vehicle (n=11) or (R,R)-pyrodach-2 at a concentration of 62.5 mg/kg (n=12). Mice engrafted with the Vk12653 transplantable line were likewise treated with vehicle (n=10) or (R,R)-pyrodach-2 at 62.5 mg/kg (n=10). Both Vk12598 and Vk12653 engrafted mice were treated twice a week for two weeks via IP injection and monitored via survival and M-spike levels, respectively.

[3] = test system: Vk12653-engrafted mice; assay: Mice engrafted with multidrug resistant Vk12653 line, M-spike levels; type: in vivo; details: 62.5 mg/kg IP twice a week for two weeks
Description: as §1, §2

[4] = LA-ICP-MS imaging, distribution and quantification of platinum in mouse whole-body sections; type: in vivo, CD-1 mice; details: (R,R)-pyrodach-2 or derived Pt; treated mice
Description: Five CD-1 mice were dosed with (R,R)-pyrodach-2, intravenous (IV), at a concentration of 90 mg/kg, and one additional mouse was dosed with vehicle (phosphate buffer). After dosing, the (R,R)-pyrodach-2 treated mice were euthanized at different time points (45 min, 3 hr, 12 hr, 24 hr, and 72 hr), and the control mouse was euthanized at 45 minutes post dosing. Subsequently, carcasses were snap frozen at −70° C. Slides of full body sagittal plane cross sections were prepared for the control, 45 min, and 24 hr mice. Laser Ablation Inductively Coupled Plasma Mass Spectrometry (LA-ICP-MS) was then used to scan the slides for the concentration of Pt (an atomic component of (R,R)-pyrodach-2) across the entire full body cross sections. Additional slides were prepared from adjacent positions and hematoxylin & eosin (H&E) stained to map the Pt signal to different organs and tissues.
To detect the Platinum element (Pt) by LA-ICP-MS imaging into mouse whole-body sections at 150 μm spatial resolution covering the entire sections in the different section planes for the animals: Treated 45 min, Treated 24 h and Control 45 min (3 sectioning levels per animal).
The mice were sectioned at 20 μm thickness in 3 different section planes with a cryostat and mounted onto ITO glass slides. […]

[5] = test system: cancerous cell lines, including leukemia and multiple myeloma cell lines resistant to lenalidomide, dexamethasone, and/or bortezomib; assay: In vitro experiments on several cancerous cell lines; type: cell-based; details: several different cancerous cell lines
From the text: Thus, these bone tissues are exposed to (R,R)-pyrodach-2 (or derived Pt) at concentrations much higher than what is normally needed to induce cancer cell death.

[6] = test system: metastatic castration resistant prostate cancer (mCRPC); assay: Phase I study, decline in serum alkaline phosphatase in patient with mCRPC; type: in vivo, human; details: 250 mg/m^2 on days 1, 8, 15 of 28 day cycle
Description: In an ongoing phase I solid tumor dose escalation study, R,R-pyrodach-2 (PT-112) was given to a patient with mCRPC at a dose of 250 mg/m^2, dosed on days 1, 8, and 15 of a 28 day cycle. The patient enrolled in the study with elevated serum alkaline phosphatase levels, a sign of metastatic bone disease.
Upon treatment start, the patient experienced a rapid decline in serum alkaline phosphatase levels, a sign of anticancer drug activity at cancerous bone lesions. These measurements were fractionated to validate the proportion of the result emanating from bone (vs. liver). The bone proportion represented the vast majority of the result, validating the relationship to the metastatic bone disease in this patient.

[7] = Phase I solid tumor dose escalation study, safety; type: in vivo, human; details: phase I trial; MTD yet to be determined
Description: In an ongoing phase I solid tumor dose escalation study, R,R-pyrodach-2 (PT-112) was given to a patient with mBCC at a dose of 150 mg/m^2, dosed on days 1, 8, and 15 of a 28 day cycle.

O=P1(O)OP(=O)(O)[O][Pt]2([NH][C@@H]3CCCC[C@H]3[NH]2)[O]1 (stereo partly drawn) [(R,R)-pyrodach-2, trans-(R,R)-1,2-cyclohexanediamine-(dihydrogenpyrophosphato) platinum(II)]
results compared with approved MM SoC agents ([1]; M-spike response in Vk*MYC model): comparable or superior | tolerability ([1]; given twice or thrice weekly, Vk*MYC mouse model): well tolerated | complete responses [2]: durable, complete response lasting over six months | survival [2]: significant increases in survival | survival ([2]; listed as (R,R)-Pyrodach-2): increased survival | M-spike levels in comparison to vehicle control [3]: statistically significant reduction | M-spike levels in comparison to vehicle control ([3]; listed as (R,R)-Pyrodach-2): repression of M-spike level elevations | distribution to bone compartments [4]: clearly concentrates in bone compartments at very high concentrations over a long period of time | concentrations sufficient to kill cancer cells [5]: low micromolar | serum alkaline phosphatase levels [6]: rapid decline | highest dose deemed to be safe [7]: 360 mg/m^2

Reference: patent US10668080B2, “Phosphaplatin compounds as therapeutic agents for treatment of bone or blood cancers” (Phosplatin Therapeutics LLC, priority 2017, dated 2020)
